Results reported in the supplement of paper PMC6045584.

Experiments:
Assay in all cases: area under dose-response curve of surviving fraction (unscaled, Aref=0) (surviving fraction x log10(nM)); higher = more resistant
Details in all cases: exposure time: 5 days; dose range 0.5-1000 nM
[1] = compound: C[C@@H](Oc1cc(-c2cnn(C3CCNCC3)c2)cnc1N)c1c(Cl)ccc(F)c1Cl [CRIZOTINIB]
Outline: (§1)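 Surviving fractions were fitted by 3-parameter logistic regression in the drc R package to give dose-response survival curves. They came from tumour cell lines treated for five days with eight inhibitor concentrations from 0.5 to 1000 nM and read by CellTiter-Glo luminescence against DMSO-only wells. The area under the curve is the unscaled activity area. It was calculated over log10 dose with Aref = 0.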

[2] = compound: Oc1nc(-c2ccc(C(F)(F)F)cc2)nc2c1CSCC2 [XAV-939]
Outline: as §1

[3] = compound: COc1cc2c(Oc3ccc(NC(=O)C4(C(=O)Nc5ccc(F)cc5)CC4)cc3F)ccnc2cc1OCCCN1CCOCC1 [FORETINIB]
Outline: as §1

[4] = compound: CNCc1ccc(-c2[nH]c3cc(F)cc4c3c2CCNC4=O)cc1
Outline: as §1

[5] = compound: NS(=O)(=O)OC[C@@H]1C[C@@H](n2ccc3c(N[C@H]4CCc5ccccc54)ncnc32)C[C@@H]1O [MLN-4924]
Outline: as §1

[6] = compound: CCn1c(C(=O)N(C2CC2)C2CC2)cc2c3c(ncn3C)c(Nc3cc(C)n(C)n3)nc21
Outline: as §1

[7] = compound: CN1CCN(c2nc(C3=C(c4c[nH]c5ccccc45)C(=O)NC3=O)c3ccccc3n2)CC1 [SOTRASTAURIN/AEB071]
Outline: as §1

[8] = compound: C[C@]12CC[C@H](O)CC1=CC[C@@H]1[C@@H]2CC[C@]2(C)C(c3cccnc3)=CC[C@@H]12 [ABIRATERONE]
Outline: as §1

[9] = compound: CNC(=O)c1cc(Oc2ccc(NC(=O)Nc3ccc(Cl)c(C(F)(F)F)c3)cc2)ccn1 [SORAFENIB]
Outline: as §1

[10] = compound: C[C@@H](Oc1cc(-c2cnn(C3CCNCC3)c2)cnc1N)c1c(Cl)ccc(F)c1Cl
Outline: as §1

[11] = compound: Cn1nnc2c(C(N)=O)ncn2c1=O [TEMOZOLOMIDE]
Outline: as §1

[12] = compound: O=C(c1cc(Cc2n[nH]c(=O)c3ccccc23)ccc1F)N1CCN(C(=O)C2CC2)CC1 [OLAPARIB]
Outline: as §1

[13] = compound: COc1cc2ncnc(Nc3ccc(F)c(Cl)c3)c2cc1NC(=O)/C=C/CN1CCCCC1
Outline: as §1

[14] = compound: Cc1nc(Nc2ncc(C(=O)Nc3c(C)cccc3Cl)s2)cc(N2CCN(CCO)CC2)n1 [DASATINIB]
Outline: as §1

| Test System | area under dose-response curve [1] | area under dose-response curve [2] | area under dose-response curve [3] | area under dose-response curve [4] | area under dose-response curve [5] | area under dose-response curve [6] | area under dose-response curve [7] | area under dose-response curve [8] | area under dose-response curve [9] | area under dose-response curve [10] | area under dose-response curve [11] | area under dose-response curve [12] | area under dose-response curve [13] | area under dose-response curve [14] |
| --- | --- | --- | --- | --- | --- | --- | --- | --- | --- | --- | --- | --- | --- | --- |
| 22RV1 PROSTATE | 3.17 | 3.34 | 3.05 | 3.57 | 2.3 | 3.4 | 3.61 | 3.62 | 3.42 | 3 | 3.54 | 3.41 | – | – |
| A549 LUNG | 3.27 | 3.48 | 3.13 | 3.56 | 3.14 | 3.2 | – | 3.53 | 3.44 | 3.25 | 3.43 | 3.48 | 3.32 | 2.72 |
| CADOES1 SOFT TISSUE | 3.05 | 2.98 | 2.56 | 2.97 | 2.57 | 3.08 | 3.21 | – | 2.92 | 2.94 | 3.11 | 3.04 | 3 | 3.34 |
| CAL51 BREAST | 2.87 | 3.24 | 2.75 | 2.78 | 2.56 | 3.3 | 3.16 | 3.32 | 3.36 | 2.77 | 3.41 | 2.99 | 3.29 | 1.95 |
| CAL120 BREAST | 3.24 | 3.24 | 3.06 | 3.19 | 2.22 | 3.06 | 3.28 | 3.35 | 3.19 | 2.89 | 3.22 | 2.89 | 3.14 | 1.98 |
| CASKI CERVIX | 2.83 | 3.25 | 2.87 | 3.04 | 2.18 | 3.21 | 3.1 | – | – | 2.58 | 3.19 | 2.98 | 1.19 | 1.2 |
| COLO320DM LARGE INTESTINE | 3.21 | 3.19 | 3.16 | 3.27 | 3.14 | 3.77 | 3.45 | 3.36 | 3.67 | 3.01 | 3.45 | 3.46 | 3.2 | 3.52 |
| H23 LUNG | 3.48 | 2.94 | 3.19 | 3.63 | 2.48 | 3.2 | 3.58 | 3.65 | 3.89 | 3.24 | 3.33 | 3.67 | 1.51 | 2.14 |
| HCC78 LUNG | 2.26 | 2.69 | 1.78 | 3.18 | 1.64 | 2.67 | 3.62 | 3.32 | 3.05 | 2.08 | 2.97 | 3.38 | 2.51 | 1.88 |
| HELA CERVIX | 3.42 | 3.57 | 3.06 | 3.62 | 3.35 | 3.32 | 3.56 | 3.73 | 3.38 | 3.13 | 3.6 | 3.66 | 3.73 | 3.16 |
| HOS BONE | 3.13 | 3.4 | 3.06 | 3.35 | 2.11 | 3.32 | 3.38 | 3.5 | 3.42 | 3.05 | 3.42 | 3.37 | 3.27 | 2.29 |
| HOSMNG BONE | 2.38 | 3.14 | 2.05 | 3.01 | 3.01 | 3.39 | 3.24 | 3.41 | – | 2.33 | 3 | 3.29 | 3.18 | 2.21 |
| HSSYII SYNOVIAL | 2.85 | 3.04 | 2.59 | 2.44 | 1.85 | 3.02 | 2.99 | 3.22 | 3.17 | 2.49 | 3.23 | 2.67 | 3 | 2.17 |
| HT1080 SOFT TISSUE | 3.28 | 2.94 | 3.13 | 3.02 | 2.52 | 3.3 | 3.53 | 3.37 | 3.4 | 3.25 | 3.41 | 2.92 | 3.22 | 2.37 |
| JIMT1 BREAST | 3.18 | 3.26 | 3.01 | 3.03 | 3.19 | 3.27 | 3.24 | 3.3 | 3.34 | 3.01 | 3.4 | 3.01 | 2.5 | 1.66 |
| KPD BONE | 3.08 | 3.17 | 3.08 | 3.18 | 2.61 | 3.28 | 3.41 | 3.4 | 3.2 | 2.95 | 3.35 | 3.12 | 3.13 | 2.1 |
| LM7 BONE | 3.05 | 3.45 | 3.1 | 2.67 | 2.09 | 3.31 | 3.08 | 3.33 | 3.39 | 2.6 | 3.38 | 2.84 | 2.98 | 1.58 |
| LNCAP PROSTATE | 2.91 | 2.79 | 2.93 | – | 1.35 | 2.93 | 3.71 | 2.98 | – | 2.82 | 3.08 | 3.27 | 2.92 | 2.62 |

| Test System | area under dose-response curve [1] | area under dose-response curve [2] | area under dose-response curve [3] | area under dose-response curve [4] | area under dose-response curve [5] | area under dose-response curve [6] | area under dose-response curve [7] | area under dose-response curve [8] | area under dose-response curve [9] | area under dose-response curve [10] | area under dose-response curve [11] | area under dose-response curve [12] | area under dose-response curve [13] | area under dose-response curve [14] |
| --- | --- | --- | --- | --- | --- | --- | --- | --- | --- | --- | --- | --- | --- | --- |
| MCF7 BREAST | 3.04 | 3.19 | 2.96 | 3.04 | 2.24 | 2.83 | 3.11 | 3.3 | 2.97 | 2.71 | 3.08 | 3.07 | 3.16 | 2.56 |
| MDAMB157 BREAST | 3.17 | 3.08 | 2.94 | 3.13 | 2.69 | 2.94 | 3.23 | 3.17 | – | 2.84 | 3.27 | 3.21 | 3.08 | 1.89 |
| MDAMB231 BREAST | 2.93 | 2.95 | 2.91 | 3.03 | 2.4 | 3.25 | 3.34 | 3.29 | 3.13 | 2.81 | 3.27 | 3.09 | 3.08 | 1.44 |
| MDAMB361 BREAST | 2.86 | 3.04 | 2.98 | 2.1 | 2.48 | 2.83 | 2.21 | – | 2.79 | 2.88 | 3.06 | 2.26 | 2.58 | 2.45 |
| MDAMB436 BREAST | 3.4 | 3.05 | 3.16 | 2.37 | 2.24 | 2.67 | 2.8 | 3.11 | 3.22 | 2.84 | 3.32 | 2.31 | 3.06 | 2.65 |
| MFM223 BREAST | 3.69 | 3.24 | 3.08 | 2.94 | 2.82 | 3.58 | 2.95 | 3.88 | 3.79 | 2.92 | 4.05 | 2.99 | 3.27 | 2.52 |
| MHM BONE | 3.27 | 3.28 | 3.2 | 3.49 | – | 3.28 | 3.52 | 3.43 | 3.47 | 3.21 | 3.31 | 3.42 | 3.28 | 2.44 |
| OS25HAL BONE | 3.21 | 3.23 | 2.85 | – | 2.39 | 3.23 | 3.43 | 3.44 | 3.2 | 3.14 | 3.52 | 3.36 | 3.34 | 2.28 |
| OSHN BONE | 3.28 | 3.53 | 3.09 | 3.21 | 2.48 | 3.38 | 3.32 | 3.67 | 3.51 | 3.17 | 3.58 | 3.28 | 3.52 | 2.81 |
| S68 BREAST | 2.72 | 3.19 | 2.65 | 2.67 | 2.21 | – | 3.45 | 3.31 | 3.49 | 2.76 | 3.53 | 2.85 | 2.49 | 1.44 |
| SG43 HEADNECK | 2.8 | 2.88 | 2.45 | 3.46 | – | 2.97 | 3.54 | 3.37 | 4.26 | 2.88 | 2.97 | 3.28 | 1.38 | 1.64 |
| SNU475 LIVER | 3.26 | 3.07 | 3.18 | 3.13 | 3.13 | 3.18 | 3.15 | 3.42 | 3.6 | 2.77 | 3.4 | 3.11 | 2.94 | 1.64 |
| SUM149 BREAST | 3.15 | 2.66 | 2.82 | 2.39 | 2.38 | 3.48 | 2.96 | 3.16 | 3.9 | 2.99 | 3.57 | 2.46 | 2.13 | 1.49 |
| SYO1 SYNOVIAL | 2.71 | 3.01 | 2.43 | 2.25 | 2.1 | 3.06 | 3.01 | 3.32 | 3.06 | 2.44 | 3.18 | 2.48 | 3.02 | 1.7 |
| T47D BREAST | 3.51 | 3.54 | 3.43 | 3.24 | 2.34 | 3.36 | 3.44 | 3.62 | 3.6 | 3.15 | 3.49 | 3.11 | 3.49 | 3.08 |
| U2OS BONE | 3.06 | 3.25 | 3 | 3.17 | 2.83 | 3.44 | 3.36 | 3.6 | 3.5 | 2.88 | 3.39 | 3.26 | 3.24 | 2.63 |
| VCAP PROSTATE | 3.04 | 3.13 | 3.06 | 3.23 | 2.21 | 3.54 | 3.27 | 3.72 | 3.73 | 2.88 | 3.44 | 3.59 | 3.12 | 3.15 |
